# Experimental data reported in US20150368617A1, “METHOD FOR FORMING ENDOTHELIAL CELLS” (Korea Advanced Institute of Science and Technology (KAIST), priority 2012, published 2015).
# Tests used:
# Format in all cases: cell-based, mouse
# [1] = system: Flk1+ MPCs; test: Cell adhesion assay, Flk1+ MPCs; conditions: 6 hrs
# Experimental: Sorted Flk1+ MPCs or ICAM2+ ECs were plated onto Matrigel coated plates at a density of 10,000 cells/cm^2. Six hrs after plating, non-adherent cells were removed by washing and the cell number of adherent cells was counted following trypsinization. The percentage of adherent cells was calculated as (counted cell number/initial seeded cell number)×100.
# [2] = system: ICAM2+ ECs; test: Quantitative RT-PCR of EC- and MC-related genes in purified ICAM2+ ECs; conditions: VEGF-A plus Y27632 compared to VEGF-A
# Description: Total RNA from purified ICAM-2+ ECs was extracted using Trizol RNA extraction kit (Invitrogen) according to the manufacturer's instructions. 1┌ g of the RNA was reverse transcribed into cDNA using GoScript™ cDNA synthesis system (Promega). Synthesized cDNA was applied for quantitative real-time PCR using FastStart SYBR green Master (Roche) and Bio-Rad S1000 Thermal cycler with the indicated primers (Table I). GAPDH was used as reference gene and the results were presented as relative expression to control using the ddCt method.
# [3] = system: VYI-ECs; test: Angiogenesis assay using a microfluidic device; conditions: 72 hr; co-treatment of Y27632 with VEGF-A
# Experimental: To test the angiogenic property of VYI-ECs, we utilized a microfluidic platform that was modified from the previously described device. Briefly, a poly-dimethylsiloxane (PDMS) based microfluidic platform containing three channels was fabricated with poly-dimethylsiloxane using a soft lithography process. Two empty spaces in between three parallel channels were filled with a mixture of type I collagen (3 mg/ml, rat tail, BD Biosciences) and fibronectin (50 μg/ml, Invitrogen), which together acted as an ECM scaffold. The center channel was coated with fibronectin (10 μg/ml), and was seeded with 40˜50 μl of VYI-EC suspension (1×10^7 cells/ml). The device was tilted vertically for 1 hr to allow the cells to attach onto the sidewall of the scaffold by gravity. The cells were then seeded onto the other sidewall by flipping the device upside down. Cell culture media in the side channels containing VEGF-A (50 ng/ml) or VEGF-A (50 ng/ml) plus Y27632 (10 μM) were exchanged with fresh media every 12 hr. Phase contrast and immunofluorescent images were acquired to analyze the angiogenic sprouting formation of VYI-ECs.
# [4] = system: Flk1+ MPCs; test: Differentiation of MCs from Flk1+ MPCs, FACS of αSMA+ MCs; conditions: Y27632 10 μM; ML7 5 μM
# Experimental: FIGS. 11A-11D. ROCK suppression promotes the differentiation of ECs through PTEN-Akt signaling and inhibits the differentiation of MCs through MyPT-MLC signaling. (FIG. 11A) Representative FACS analysis of CD31+/CD144+ ECs incubated with 0.1% DMSO or LY294002 (20┌ M; LY) in the presence of PBS (Control) or Y27632 (10┌ M; Y). (FIG. 11B) % of CD31+/CD144+ EC population. Each group, n=3. *p<0.01 versus 0. Each group, n=3. *p<0.01 versus DMSO; ^#p<0.01 versus Y27632. (FIG. 11C) Representative FACS analysis of ┌ SMA+MCs or CD144+ ECs incubated with 0.1% DMSO or ML7 (5 ┌ M) in the presence of PBS (Control) or Y27632 (10┌ M). (FIG. 11D) % of ┌ SMA+MC population. Each group, n=3. *p<0.01 versus 0. Each group, n=3. *p<0.01 versus DMSO. n.s. represents statistically non-significant.
# Analysis and sorting for CMs were performed at day 10.5. We harvested differentiated Flk1+ MPCs on OP9 cells with 0.25% trypsin-EDTA or dissociation buffer (Invitrogen). Cardiac troponin-T (cTnT)+ and ┌ smooth muscle actin (SMA)+ cells were analyzed after permeabilization using Cytofix/Cytoperm solution (BD Biosciences) for 15 min. After permeabilization, the cells were incubated for 30 min with anti-mouse cTnT (NeoMarkers) monoclonal antibody. […] Data were analyzed using FlowJo Version 7.5.4 software (TreeStar).
# [5] = system: VYI-ECs; test: Matrigel tube forming assay; conditions: addition of Y27632 10 μM to VEGF-A
# Experimental: The purified VYI-ECs (described in detail in the Results section) were plated on Matrigel-filled plates at a density of 2-4×10^4 cells/cm^2, and were incubated in differentiation medium containing VEGF-A (50 ng/ml) with or without Y27632 (10┌ M). After 12 hrs, the tube structures were observed using Axiovert 25 microscope (Carl Zeiss) and phase-contrast images were taken using DeltaPix infinity X digital camera and DpxView LE software (DeltaPix, Denmark).
# [6] = system: CD144+ ECs; test: BrdU/7-AAD cell cycle analysis and BrdU incorporation in differentiating Flk1+ MPCs
# Experimental: Apoptosis assay was performed as previously described. To determine the cell cycle, BrdU/7-AAD cell cycle analysis was performed according to the manufacturer's instructions (BD Pharmingen™). Briefly, cells were incubated with BrdU (1 mM) for 1 hr, dissociated with dissociation buffer, and stained with anti-CD144 antibody. The cells were then fixed, permeabilized, and fixed once more, followed by 1 hr incubation with DNase I (200 U) at 37┌ C. After incubation with FITC-conjugated anti-BrdU antibody for 20 min at RT, the cells were stained with 7-AAD. The cells were analyzed by FACS Aria II and the data were analyzed using FlowJo software.
compound,measurement,setting,value
C[C@@H](N)[C@H]1CC[C@H](C(=O)Nc2ccncc2)CC1 [Y27632],adhesion of Flk1+ cells onto the plates compared to control,[1],1.3 fold
same,"calponin mRNA, reduced expression level",[2],25 fold
same,"claudin-5 mRNA, expressed more",[2],4.6 fold
same,"dll4 mRNA, expressed more",[2],2.5 fold
same,"ets1 mRNA, expressed more",[2],1.4 fold
same,"ets2 mRNA, expressed more",[2],2.1 fold
same,"notch1 mRNA, expressed more",[2],1.5 fold
same,"sm22a mRNA, reduced expression level",[2],25 fold
same,"sma mRNA, reduced expression level",[2],17 fold
same,"sox17 mRNA, expressed more",[2],1.7 fold
same,"sox18 mRNA, expressed more",[2],1.8 fold
same,"vegfr3 mRNA, expressed more",[2],1.7 fold
same,increase of length of sprouting CD144+ VYI-ECs,[3],1.7 fold
same,reduction of αSMA+MC population,[4],~83%
same,increase of formation of vascular networks,[5],1.7 fold
same,increase of BrdU+/CD144+ EC population,[6]; 12 hrs,1.7 fold
same,increase of BrdU+/CD144+ EC population,[6]; 36 hrs,2.7 fold
same,increase of population of CD144+ ECs in S phase compared to control,[6]; 36 hrs,1.23 fold
same,reduction of CD144+ ECs in G0/G1 phase compared to control,[6]; 36 hrs,12%
